In the NIST ThermoML archive (doi:10.1007/s10765-005-5570-x):
± gives the expanded uncertainty stated by the source.

Test: xn = mol fraction of the nth substance listed
Details: Liquid

BrCBr [dibromomethane] + CCOC(C)=O
mass density (288.15 K, 101.33 kPa, x1 = 0.0522): 966.58 ± 0.38 kg/m3 | mass density (288.15 K, 101.33 kPa, x1 = 0.2014): 1147.77 ± 0.67 kg/m3 | mass density (288.15 K, 101.33 kPa, x1 = 0.3006): 1277.79 ± 0.98 kg/m3 | mass density (288.15 K, 101.33 kPa, x1 = 0.4028): 1419.89 ± 1.3 kg/m3 | mass density (288.15 K, 101.33 kPa, x1 = 0.4852): 1542.09 ± 1.6 kg/m3 | mass density (288.15 K, 101.33 kPa, x1 = 0.6012): 1725.96 ± 2.1 kg/m3 | mass density (288.15 K, 101.33 kPa, x1 = 0.7001): 1895.61 ± 2.6 kg/m3 | mass density (288.15 K, 101.33 kPa, x1 = 0.8077): 2095.3 ± 3.1 kg/m3 | mass density (288.15 K, 101.33 kPa, x1 = 0.8997): 2281.45 ± 3.6 kg/m3 | mass density (288.15 K, 101.33 kPa, x1 = 1): 2501.88 ± 4.2 kg/m3 | mass density (298.15 K, 101.33 kPa, x1 = 0.0522): 954.36 ± 0.4 kg/m3 | mass density (298.15 K, 101.33 kPa, x1 = 0.2014): 1133.83 ± 0.64 kg/m3 | mass density (298.15 K, 101.33 kPa, x1 = 0.3006): 1262.61 ± 0.95 kg/m3 | mass density (298.15 K, 101.33 kPa, x1 = 0.4028): 1404.06 ± 1.3 kg/m3 | mass density (298.15 K, 101.33 kPa, x1 = 0.4852): 1525 ± 1.6 kg/m3 | mass density (298.15 K, 101.33 kPa, x1 = 0.6012): 1707.9 ± 2.1 kg/m3 | mass density (298.15 K, 101.33 kPa, x1 = 0.7001): 1876.1 ± 2.5 kg/m3 | mass density (298.15 K, 101.33 kPa, x1 = 0.8077): 2074.59 ± 3 kg/m3 | mass density (298.15 K, 101.33 kPa, x1 = 0.8997): 2259.57 ± 3.5 kg/m3 | mass density (298.15 K, 101.33 kPa, x1 = 1): 2478.37 ± 4.1 kg/m3 | mass density (298.15 K, 200 kPa, x1 = 0.2995): 1260.2 ± 0.95 kg/m3 | mass density (298.15 K, 200 kPa, x1 = 0.5013): 1549.45 ± 1.7 kg/m3 | mass density (298.15 K, 200 kPa, x1 = 0.6994): 1874.05 ± 2.5 kg/m3 | mass density (298.15 K, 500 kPa, x1 = 0.2995): 1260.63 ± 0.97 kg/m3 | mass density (298.15 K, 600 kPa, x1 = 0.5013): 1550.03 ± 1.7 kg/m3 | mass density (298.15 K, 600 kPa, x1 = 0.6994): 1874.73 ± 2.6 kg/m3 | mass density (298.15 K, 1100 kPa, x1 = 0.2995): 1261.34 ± 1 kg/m3 | mass density (298.15 K, 1100 kPa, x1 = 0.5013): 1550.84 ± 1.8 kg/m3 | mass density (298.15 K, 1200 kPa, x1 = 0.6994): 1875.51 ± 2.7 kg/m3 | mass density (298.15 K, 1900 kPa, x1 = 0.5013): 1551.83 ± 1.9 kg/m3 | mass density (298.15 K, 2100 kPa, x1 = 0.2995): 1262.47 ± 1.1 kg/m3 | mass density (298.15 K, 2200 kPa, x1 = 0.6994): 1876.85 ± 2.9 kg/m3 | mass density (298.15 K, 2900 kPa, x1 = 0.2995): 1263.67 ± 1.1 kg/m3 | mass density (298.15 K, 2900 kPa, x1 = 0.5013): 1553.29 ± 2 kg/m3 | mass density (298.15 K, 2900 kPa, x1 = 0.6994): 1878.02 ± 3 kg/m3 | mass density (298.15 K, 3700 kPa, x1 = 0.2995): 1264.58 ± 1.1 kg/m3 | mass density (298.15 K, 3900 kPa, x1 = 0.5013): 1554.65 ± 2.1 kg/m3 | mass density (298.15 K, 4200 kPa, x1 = 0.6994): 1879.75 ± 3.3 kg/m3 | mass density (298.15 K, 4700 kPa, x1 = 0.5013): 1555.68 ± 2.2 kg/m3 | mass density (298.15 K, 4800 kPa, x1 = 0.2995): 1265.79 ± 1.2 kg/m3 | mass density (298.15 K, 5200 kPa, x1 = 0.6994): 1881.21 ± 3.5 kg/m3 | mass density (298.15 K, 5900 kPa, x1 = 0.2995): 1267.24 ± 1.3 kg/m3 | mass density (298.15 K, 6000 kPa, x1 = 0.5013): 1557.43 ± 2.4 kg/m3 | mass density (298.15 K, 6000 kPa, x1 = 0.6994): 1882.25 ± 3.6 kg/m3 | mass density (298.15 K, 6700 kPa, x1 = 0.5013): 1558.4 ± 2.5 kg/m3 | mass density (298.15 K, 6800 kPa, x1 = 0.2995): 1268.29 ± 1.3 kg/m3 | mass density (298.15 K, 7000 kPa, x1 = 0.6994): 1883.78 ± 3.9 kg/m3 | mass density (298.15 K, 7900 kPa, x1 = 0.5013): 1560 ± 2.6 kg/m3 | mass density (298.15 K, 8000 kPa, x1 = 0.2995): 1269.58 ± 1.4 kg/m3 | mass density (298.15 K, 8100 kPa, x1 = 0.6994): 1885.33 ± 4.1 kg/m3 | mass density (298.15 K, 8600 kPa, x1 = 0.5013): 1561.02 ± 2.7 kg/m3 | mass density (298.15 K, 8900 kPa, x1 = 0.2995): 1270.84 ± 1.5 kg/m3 | mass density (298.15 K, 9100 kPa, x1 = 0.6994): 1887 ± 4.3 kg/m3 | mass density (298.15 K, 9800 kPa, x1 = 0.2995): 1271.89 ± 1.5 kg/m3 | mass density (298.15 K, 10000 kPa, x1 = 0.5013): 1562.92 ± 2.9 kg/m3 | mass density (298.15 K, 10000 kPa, x1 = 0.6994): 1888.23 ± 4.5 kg/m3 | mass density (298.15 K, 10400 kPa, x1 = 0.6994): 1888.73 ± 4.5 kg/m3 | mass density (298.15 K, 12000 kPa, x1 = 0.5013): 1565.67 ± 3.2 kg/m3 | mass density (298.15 K, 12100 kPa, x1 = 0.2995): 1274.55 ± 1.7 kg/m3 | mass density (298.15 K, 12300 kPa, x1 = 0.6994): 1891.62 ± 4.9 kg/m3 | mass density (298.15 K, 13800 kPa, x1 = 0.5013): 1568.24 ± 3.4 kg/m3 | mass density (298.15 K, 14000 kPa, x1 = 0.2995): 1276.89 ± 1.8 kg/m3 | mass density (298.15 K, 14000 kPa, x1 = 0.6994): 1894.37 ± 5.3 kg/m3 | mass density (298.15 K, 15800 kPa, x1 = 0.2995): 1278.96 ± 1.9 kg/m3 | mass density (298.15 K, 15800 kPa, x1 = 0.5013): 1570.87 ± 3.7 kg/m3 | mass density (298.15 K, 15900 kPa, x1 = 0.6994): 1897.08 ± 5.7 kg/m3 | mass density (298.15 K, 17600 kPa, x1 = 0.5013): 1573.34 ± 3.9 kg/m3 | mass density (298.15 K, 17800 kPa, x1 = 0.6994): 1900.02 ± 6.1 kg/m3 | mass density (298.15 K, 17900 kPa, x1 = 0.2995): 1281.5 ± 2.1 kg/m3 | mass density (298.15 K, 19800 kPa, x1 = 0.5013): 1576.4 ± 4.2 kg/m3 | mass density (298.15 K, 19800 kPa, x1 = 0.6994): 1903.09 ± 6.5 kg/m3 | mass density (298.15 K, 20100 kPa, x1 = 0.2995): 1284.19 ± 2.2 kg/m3 | mass density (308.15 K, 101.33 kPa, x1 = 0.0522): 940.97 ± 0.42 kg/m3 | mass density (308.15 K, 101.33 kPa, x1 = 0.2014): 1118.5 ± 0.61 kg/m3 | mass density (308.15 K, 101.33 kPa, x1 = 0.3006): 1245.98 ± 0.91 kg/m3 | mass density (308.15 K, 101.33 kPa, x1 = 0.4028): 1385.7 ± 1.3 kg/m3 | mass density (308.15 K, 101.33 kPa, x1 = 0.4852): 1505.67 ± 1.6 kg/m3 | mass density (308.15 K, 101.33 kPa, x1 = 0.6012): 1686.98 ± 2 kg/m3 | mass density (308.15 K, 101.33 kPa, x1 = 0.7001): 1854.24 ± 2.5 kg/m3 | mass density (308.15 K, 101.33 kPa, x1 = 0.8077): 2050.67 ± 3 kg/m3 | mass density (308.15 K, 101.33 kPa, x1 = 0.8997): 2234.29 ± 3.5 kg/m3 | mass density (308.15 K, 101.33 kPa, x1 = 1): 2451.74 ± 4 kg/m3
